Laboratory results reported in patent publication US12398154B2, “Azaquinazoline pan-KRas inhibitors” (Mirati Therapeutics, Inc., priority 2020, dated 2025).
pIC50: −log10 of the molar value.

Legend:
KRas G12V = KRas G12V (Homo sapiens, UniProt P01116, G12V); experiment: biochemical;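 further: KRas binding measured by TR-FRET displacement at room temperature, IC50 fitted from percent of control values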
Description: (§1) The ability of a compound to bind to KRas was measured using a TR-FRET displacement assay. […] After a 60-minute incubation at room temperature, the reaction was measured using a BMG LABTECH CLARIO star Plus via TR-FRET. […] The POC values were fit to a 4-parameter IC50 equation and the IC50 value reported.

KRas G12S = KRas G12S (Homo sapiens, UniProt P01116, G12S); experiment: biochemical;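 further: TR-FRET displacement binding to KRas, read after one hour incubation at room temperature, IC50 from four-parameter fit of percent of control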
Description: as §1

KRas G12A = KRas G12A (Homo sapiens, UniProt P01116, G12A); experiment: biochemical;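 further: binding to KRas measured by TR-FRET displacement after one hour at room temperature, IC50 from a four-parameter fit of percent-of-control values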
Description: as §1

KRas G12R = KRas G12R (Homo sapiens, UniProt P01116, G12R); experiment: biochemical;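 further: TR-FRET displacement assay of compound binding to KRas, read after one hour at room temperature, potency from a four-parameter fit of percent-of-control values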
Description: as §1

KRas WT = KRas WT (Homo sapiens, UniProt P01116); experiment: biochemical;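 further: binding to KRas read as TR-FRET displacement after a one-hour room-temperature incubation, IC50 derived from percent-of-control values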
Description: as §1

KRas G12C = KRas G12C (Homo sapiens, UniProt P01116, G12C); experiment: biochemical;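 further: binding to KRas assessed by TR-FRET displacement after one hour incubation at room temperature, potency fitted from percent-of-control values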
Description: as §1

KRas G12D = KRas G12D (Homo sapiens, UniProt P01116, G12D); experiment: biochemical;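 further: TR-FRET displacement binding assay on KRas, read after a one-hour incubation at room temperature, IC50 fitted from percent-of-control values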
Description: as §1

pERK in PSN1 cells = experiment: Inhibition of KRas phosphorylation of ERK (Cisbio HTRF pERK assay); conditions: Homo sapiens, PSN1, 3 h, read-out: Inhibition (HTRF IC50) of KRas-mediated Phosphorylation of ERK, PSN1
pERK in ASPC1 cells = experiment: as above; conditions: Homo sapiens, ASPC1, read-out: Inhibition (HTRF IC50) of KRas-mediated Phosphorylation of ERK, AsPC-1
pERK in MKN1 cells = experiment: as above; conditions: Homo sapiens, MKN-1, 3 h, read-out: Inhibition (HTRF IC50) of KRas-mediated Phosphorylation of ERK, MKN1

Chain of KRas G12D (P01116 1-169 isoform P01116-2 G12D): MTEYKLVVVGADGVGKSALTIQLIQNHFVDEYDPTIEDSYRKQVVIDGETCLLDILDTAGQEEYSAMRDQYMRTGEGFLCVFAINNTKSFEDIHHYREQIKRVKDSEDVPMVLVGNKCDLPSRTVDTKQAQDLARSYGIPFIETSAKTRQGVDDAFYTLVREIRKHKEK
Chain of KRas G12R (P01116 1-169 isoform P01116-2 G12R): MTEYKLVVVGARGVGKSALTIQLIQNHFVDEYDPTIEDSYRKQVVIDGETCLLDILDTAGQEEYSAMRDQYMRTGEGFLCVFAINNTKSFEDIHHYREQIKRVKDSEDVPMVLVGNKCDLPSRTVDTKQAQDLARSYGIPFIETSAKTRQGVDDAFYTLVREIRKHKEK
Chain of KRas G12C (P01116 1-169 isoform P01116-2 G12C): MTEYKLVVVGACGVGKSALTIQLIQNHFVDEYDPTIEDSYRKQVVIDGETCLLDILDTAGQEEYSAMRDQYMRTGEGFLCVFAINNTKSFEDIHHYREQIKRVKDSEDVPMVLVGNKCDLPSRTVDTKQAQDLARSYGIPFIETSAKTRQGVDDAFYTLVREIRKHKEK
Chain of KRas G12V (P01116 1-169 isoform P01116-2 G12V): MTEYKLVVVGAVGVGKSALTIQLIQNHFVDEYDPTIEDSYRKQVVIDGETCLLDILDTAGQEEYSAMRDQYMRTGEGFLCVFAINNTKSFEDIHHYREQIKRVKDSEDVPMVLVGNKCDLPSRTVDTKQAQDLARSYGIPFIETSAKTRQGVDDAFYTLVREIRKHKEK
Chain of KRas WT (P01116 1-169 isoform P01116-2): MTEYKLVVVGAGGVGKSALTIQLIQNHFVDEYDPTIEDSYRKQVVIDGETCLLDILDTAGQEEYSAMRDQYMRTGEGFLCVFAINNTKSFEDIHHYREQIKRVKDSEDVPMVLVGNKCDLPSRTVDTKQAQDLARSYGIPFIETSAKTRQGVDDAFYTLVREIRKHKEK
Chain of KRas G12A (P01116 1-169 isoform P01116-2 G12A): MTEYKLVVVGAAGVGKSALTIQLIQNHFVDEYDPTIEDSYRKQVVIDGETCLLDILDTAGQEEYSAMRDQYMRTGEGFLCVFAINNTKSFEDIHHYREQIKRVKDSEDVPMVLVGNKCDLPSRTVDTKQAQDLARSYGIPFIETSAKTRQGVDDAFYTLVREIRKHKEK
Chain of KRas G12S (P01116 1-169 isoform P01116-2 G12S): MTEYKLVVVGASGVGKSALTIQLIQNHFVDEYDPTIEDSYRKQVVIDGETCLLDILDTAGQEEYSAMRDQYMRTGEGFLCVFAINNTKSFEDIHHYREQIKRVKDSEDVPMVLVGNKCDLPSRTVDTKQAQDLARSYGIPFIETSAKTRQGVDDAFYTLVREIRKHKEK

SMILES | pIC50 (KRas G12V) | pIC50 (KRas G12S) | pIC50 (KRas G12A) | pIC50 (KRas G12R) | pIC50 (KRas WT) | pIC50 (KRas G12C) | pIC50 (KRas G12D) | pIC50 (pERK in PSN1 cells) | pIC50 (pERK in ASPC1 cells) | pIC50 (pERK in MKN1 cells)
NC(=O)C(O)CNc1nc(OCC23CCCN2CCC3)nc2c(F)c(-c3cccc4cccc(Cl)c34)ncc12 (stereo not shown) [Example 475, 3-((7-(8-chloronaphthalen-1-yl)-8-fluoro-2-((tetrahydro-1H-pyrrolizin-7a(5H)-yl)methoxy)pyrido[4,3-d]pyrimidin-4-yl)amino)-2-hydroxypropanamide] | 5.84 | 5.56 | 5.43 | 5.58 | 5.34 | 5.56 | 5.07 |  |  | 
O=C(c1cc2n(n1)CCCN(c1nc(OCC34CCCN3CCC4)nc3c(F)c(-c4cccc5cccc(F)c45)ncc13)C2)N1CCC1 [Example 277, azetidin-1-yl(5-(8-fluoro-7-(8-fluoronaphthalen-1-yl)-2-((hexahydro-1H-pyrrolizin-7a-yl)methoxy)pyrido[4,3-d]pyrimidin-4-yl)-5,6,7,8-tetrahydro-4H-pyrazolo[1,5-a][1,4]diazepin-2-yl)methanone] | 5.74 |  |  | 5.31 | 5.28 |  | 6.12 |  |  | 
O=C1CC2(CCCN(c3nc(OCC45CCCN4CCC5)nc4c(F)c(-c5cccc6cccc(CF)c56)ncc34)C2)N1 (stereo not shown) [Example 468, 6-(8-fluoro-7-(8-(fluoromethyl)naphthalen-1-yl)-2-((hexahydro-1H-pyrrolizin-7a-yl)methoxy)pyrido[4,3-d]pyrimidin-4-yl)-1,6-diazaspiro[3.5]nonan-2-one] | 5.64 | 5.61 | 5.55 | 5.54 | 5.52 | 5.62 | 5.54 |  |  | 
CCc1c(F)ccc2cc(O)cc(-c3ncc4c(N5CCC[C@](C)(O)C5)nc(OC[C@@]56CCCN5C[C@H](F)C6)nc4c3F)c12 [Example 4] |  |  |  |  |  |  |  | ≤ 5.00 |  | 
CC(Nc1nc(OCC23CCCN2CCC3)nc2c(F)c(-c3cccc4cccc(F)c34)ncc12)c1c[nH]c2ncccc12 (stereo not shown) [Example 229, N-(1-(1H-pyrrolo[2,3-b]pyridin-3-yl)ethyl)-8-fluoro-7-(8-fluoronaphthalen-1-yl)-2-((tetrahydro-1H-pyrrolizin-7a(5H)-yl)methoxy)pyrido[4,3-d]pyrimidin-4-amine] | 5.51 |  |  | 5.67 | 4.43 | 5.33 | 4.07 |  |  | 
CCc1c(F)ccc2cc(O)cc(-c3ncc4c(N5C[C@@H]6C(CO)NC(=O)[C@@H]6C5)nc(OC[C@@]56CCCN5C[C@H](F)C6)nc4c3F)c12 (stereo in doubt) [Example 488, (3R,3aR,6aS)-5-(7-(8-ethyl-7-fluoro-3-hydroxynaphthalen-1-yl)-8-fluoro-2-(((2R,7aS)-2-fluorotetrahydro-1H-pyrrolizin-7a(5H)-yl)methoxy)pyrido[4,3-d]pyrimidin-4-yl)-3-(hydroxymethyl)hexahydropyrrolo[3,4-c]pyrrol-1(2H)-one] | 7.57 |  |  | 7.29 |  |  | 7.66 | ≤ 5.00 | ≤ 5.00 | ≤ 5.00
CS(=O)(=O)C1COCCN(c2nc(OCC34CCCN3CCC4)nc3c(F)c(-c4cccc5cccc(F)c45)ncc23)C1 (stereo not shown) [Example 271, 4-(8-fluoro-7-(8-fluoronaphthalen-1-yl)-2-((hexahydro-1H-pyrrolizin-7a-yl)methoxy)pyrido[4,3-d]pyrimidin-4-yl)-6-(methylsulfonyl)-1,4-oxazepane] | 5.61 |  |  | 5.11 | 5.52 |  | 5.61 |  |  | 
Fc1c(-c2cccc3cccc(F)c23)ncc2c(N3CCCC4(CSC4)C3)nc(OCC34CCCN3CCC4)nc12 [Example 262, 6-(8-fluoro-7-(8-fluoronaphthalen-1-yl)-2-((hexahydro-1H-pyrrolizin-7a-yl)methoxy)pyrido[4,3-d]pyrimidin-4-yl)-2-thia-6-azaspiro[3.5]nonane] | 5.75 |  |  | 5.78 | 5.81 |  | 6.02 |  |  | 
CN(C)C(=O)n1cc2c(n1)CCCN(c1nc(OCC34CCCN3CCC4)nc3c(F)c(-c4cccc5cccc(F)c45)ncc13)C2 [Example 274, 5-(8-fluoro-7-(8-fluoronaphthalen-1-yl)-2-((hexahydro-1H-pyrrolizin-7a-yl)methoxy)pyrido[4,3-d]pyrimidin-4-yl)-N,N-dimethyl-5,6,7,8-tetrahydropyrazolo[4,3-c]azepine-2(4H)-carboxamide] | 6.06 |  |  | 5.56 | 4.83 |  | 6.43 |  |  | 
Cc1c(N)nn2c1CN(c1nc(OCC34CCCN3CCC4)nc3c(F)c(-c4cccc5cccc(F)c45)ncc13)CCC2 [Example 278, 5-(8-fluoro-7-(8-fluoronaphthalen-1-yl)-2-((hexahydro-1H-pyrrolizin-7a-yl)methoxy)pyrido[4,3-d]pyrimidin-4-yl)-3-methyl-5,6,7,8-tetrahydro-4H-pyrazolo[1,5-a][1,4]diazepin-2-amine] | 5.70 |  |  | 5.73 | 5.43 |  | 6.10 |  |  | 
CCc1c(F)ccc2cc(O)cc(-c3ncc4c(NC[C@H]5COC[C@H]5O)nc(OC[C@@]56CCCN5C[C@H](F)C6)nc4c3F)c12 (single isomer, unassigned) [Example 492] | 7.82 |  |  | 7.85 |  |  | 7.08 | ≤ 5.00 | 5.45 | 6.60
CCc1c(F)ccc2cc(O)cc(-c3ncc4c(NCCN5CCNC5=O)nc(OC[C@@]56CCCN5C[C@H](F)C6)nc4c3F)c12 [Example 372, 1-(2-((7-(8-ethyl-7-fluoro-3-hydroxynaphthalen-1-yl)-8-fluoro-2-(((2R,7aS)-2-fluorotetrahydro-1H-pyrrolizin-7a(5H)-yl)methoxy)pyrido[4,3-d]pyrimidin-4-yl)amino)ethyl)imidazolidin-2-one] | 8.30 |  |  | 7.89 |  |  | 7.25 | ≤ 5.00 |  | 6.18
CCc1c(F)ccc2cc(O)cc(-c3ncc4c(NC[C@@H]5COC[C@@H]5O)nc(OC[C@@]56CCCN5C[C@H](F)C6)nc4c3F)c12 (single isomer, unassigned) [Example 493] | 7.96 |  |  | 8.05 |  |  | 6.89 | ≤ 5.00 | ≤ 5.00 | 6.21
O=C1NC2(CCCN(c3nc(OCC45CCCN4CCC5)nc4c(F)c(-c5cccc6cccc(F)c56)ncc34)C2)CO1 (stereo not shown) [Example 227, 7-(8-fluoro-7-(8-fluoronaphthalen-1-yl)-2-((hexahydro-1H-pyrrolizin-7a-yl)methoxy)pyrido[4,3-d]pyrimidin-4-yl)-3-oxa-1,7-diazaspiro[4.5]decan-2-one] | 5.61 |  |  | 5.51 | 5.47 | 5.57 | 5.91 |  |  | 
NC(=O)C1COCCN(c2nc(OCC34CCCN3CCC4)nc3c(F)c(-c4cccc5cccc(F)c45)ncc23)C1 (stereo not shown) [Example 270, 4-(8-fluoro-7-(8-fluoronaphthalen-1-yl)-2-((hexahydro-1H-pyrrolizin-7a-yl)methoxy)pyrido[4,3-d]pyrimidin-4-yl)-1,4-oxazepane-6-carboxamide] | 5.68 |  |  | 5.12 | 5.38 | 5.55 | 5.58 |  |  | 
NC(=O)[C@H]1CCCN(c2nc(OCC34CCCN3CCC4)nc3c(F)c(-c4cccc5cccc(F)c45)ncc23)C1 [Example 273, (S)-1-(8-fluoro-7-(8-fluoronaphthalen-1-yl)-2-((hexahydro-1H-pyrrolizin-7a-yl)methoxy)pyrido[4,3-d]pyrimidin-4-yl)piperidine-3-carboxamide] | 5.64 |  |  | 5.28 | 5.51 |  | 5.29 |  |  | 
CC(=O)Nc1cc2n(n1)CCCN(c1nc(OCC34CCCN3CCC4)nc3c(F)c(-c4cccc5cccc(F)c45)ncc13)C2 [Example 275, N-(5-(8-fluoro-7-(8-fluoronaphthalen-1-yl)-2-((hexahydro-1H-pyrrolizin-7a-yl)methoxy)pyrido[4,3-d]pyrimidin-4-yl)-5,6,7,8-tetrahydro-4H-pyrazolo[1,5-a][1,4]diazepin-2-yl)acetamide] | 5.04 |  |  | 5.14 | 4.61 |  | 5.78 |  |  | 
O=C(c1cc2n(n1)CCCN(c1nc(OCC34CCCN3CCC4)nc3c(F)c(-c4cccc5cccc(F)c45)ncc13)C2)N1CCOCC1 [Example 276, (5-(8-fluoro-7-(8-fluoronaphthalen-1-yl)-2-((hexahydro-1H-pyrrolizin-7a-yl)methoxy)pyrido[4,3-d]pyrimidin-4-yl)-5,6,7,8-tetrahydro-4H-pyrazolo[1,5-a][1,4]diazepin-2-yl)(morpholino)methanone] | 6.52 |  |  | 5.92 | 5.49 |  | 6.67 |  |  | 
